The source of these data is PMC6555543 (PLoS Pathogens, 2019).

Structures are written as SMILES.

Assay [1] has as its target T1, RVFV CBD (CBD13, RVFV L protein cap-binding domain) (Rift Valley fever virus, UniProt A2SZS3). The settings on record: 1-10 mM ligand, 15 μM protein, 20 mM Na-phosphate pH 6.5, 100 mM NaCl.
Assay [2] concerns the target T1, RVFV CBD (CBD13, RVFV L protein cap-binding domain). The settings on record: 25°C, 50 mM Na-phosphate pH 6.5, 150 mM NaCl, 10% glycerol; 9.8 mM GTP in syringe, 194 μM protein.
Assay [3] shares this target. Description: biochemical.

T1 sequence (A2SZS3 1706-1822 limits assumed): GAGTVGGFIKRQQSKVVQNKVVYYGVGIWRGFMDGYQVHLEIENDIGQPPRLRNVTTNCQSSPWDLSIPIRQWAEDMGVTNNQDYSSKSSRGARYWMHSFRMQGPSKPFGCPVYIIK

In the case of `Nc1ncnc2c1ncn2[C@@H]1O[C@H](COP(=O)(O)OP(=O)(O)OP(=O)(O)O)[C@@H](O)[C@H]1O` [ATP], the ΔTm entry in assay [1] was “no or even negative effects on protein stability after addition of GTP or ATP”. Regarding `Nc1nc2c(ncn2[C@@H]2O[C@H](COP(=O)(O)OP(=O)(O)OP(=O)(O)O)[C@@H](O)[C@H]2O)c(=O)[nH]1` [GTP], the KD result in assay [2] is “For GTP the KD is too high to be determined by ITC”. For the compound `C[n+]1cn([C@@H]2O[C@H](COP(=O)(O)OP(=O)(O)OP(=O)(O)O)[C@@H](O)[C@H]2O)c2nc(N)[nH]c(=O)c21` [m^7GTP], the Kd in assay [3] was ~737 µM.

For orientation: Kd means the constant that tells how readily two partners part at equilibrium. A lower Kd goes with a tighter complex.
